The results in this text go back to patent US9745360B2 (Sanofi, priority 2012, dated 2017).

Each structure is given as a SMILES string. In brackets after ≈: the same amount, converted by molar mass. Like-named read-outs stand apart in the source and are kept apart here. *1 amine or outer side, *2 acyl side, *3 side chain or, on linkers, in order; H or OH if unused. Where a SMILES comes first, the peptide text is derived from it. Side-chain parts run from the residue outwards. [ ]: non-standard residue; d: D form. The star is where a group is joined. γGlu = O=C(O)[C@H](CCC(=O)[*:2])N[*:1]; Stearoyl = CCCCCCCCCCCCCCCCCC(=O)*; Palmitoyl = CCCCCCCCCCCCCCCC(=O)*; d(αMeK) = C[C@@](N)(CCCCN)C(=O)O; αMeOrn = C[C@](N)(CCCN)C(=O)O; Aib = CC(C)(N)C(=O)O Some results are limits rather than exact numbers.

Series [1] has as its target T1, human GLP-1 receptor (hGLP-1 R) (Homo sapiens, UniProt P43220).
T1 construct: expressed in transfected cells
Briefly: cAMP response (HTRF) of HEK-293 cells stably expressing human GLP-1 receptor. The conditions noted are these: Table 7; cAMP formation. It counts as cell-based. The procedure:
(§1) cAMP content of cells was determined using a kit from Cisbio Corp. (cat. no. 62AM4PEC) based on HTRF (Homogenous Time Resolved Fluorescence). For preparation, cells were split into T175 culture flasks and grown overnight to near confluency in medium (DMEM/10% FBS). Medium was then removed and cells washed with PBS lacking calcium and magnesium, followed by proteinase treatment with accutase (Sigma-Aldrich cat. no. A6964). Detached cells were washed and resuspended in assay buffer (1×HBSS; 20 mM HEPES, 0.1% BSA, 2 mM IBMX) and cellular density determined. They were then diluted to 400000 cells/ml and 25 μl-aliquots dispensed into the wells of 96-well plates. For measurement, 25 μl of test compound in assay buffer was added to the wells, followed by incubation for 30 minutes at room temperature.
Background: Time-resolved FRET reads energy transfer from a long-lived donor to a nearby acceptor.

Series [2] deals with T2, human GIP receptor (hGIP R) (Homo sapiens, UniProt P48546).
T2 construct: expressed in transfected cells
T2 sequence (P48546 22-466): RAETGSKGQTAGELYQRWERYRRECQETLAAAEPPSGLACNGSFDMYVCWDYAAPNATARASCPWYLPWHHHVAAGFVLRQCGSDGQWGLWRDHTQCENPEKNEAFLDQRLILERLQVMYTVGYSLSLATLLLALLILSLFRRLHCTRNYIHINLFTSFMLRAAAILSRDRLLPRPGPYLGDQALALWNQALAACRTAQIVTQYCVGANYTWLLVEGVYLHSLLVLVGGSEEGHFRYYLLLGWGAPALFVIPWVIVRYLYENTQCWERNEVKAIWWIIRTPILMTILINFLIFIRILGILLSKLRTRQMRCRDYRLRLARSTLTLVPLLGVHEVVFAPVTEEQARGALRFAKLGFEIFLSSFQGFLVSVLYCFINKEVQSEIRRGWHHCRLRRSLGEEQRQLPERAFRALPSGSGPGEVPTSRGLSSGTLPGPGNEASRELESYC
Briefly: cAMP response (HTRF) of HEK-293 cells stably expressing human GIP receptor. The class given is cell-based. The conditions noted are these: Table 7; cAMP formation. The procedure: as §1

Series [3] addresses T3, human glucagon receptor (hGLUC R) (Homo sapiens, UniProt P47871).
T3 construct: expressed in transfected cells
Kind of series: cAMP response (HTRF) of HEK-293 cells stably expressing human glucagon receptor. It counts as cell-based. The conditions noted are these: Table 7; cAMP formation. The procedure:
as §1

The nature of series [4]: Solubility testing in buffer, HPLC-UV of supernatant. It counts as physicochemical. The conditions noted are these: buffer, target concentration 1.0 mg/mL. As for the experimental part:
(§2) Solubility and chemical stability of peptidic compounds were assessed as described in Methods.

Series [5] is described as follows: Chemical stability in solution, 7 days at 25° C., % remaining peptide. It counts as physicochemical. The conditions noted are these: % remaining peptide after 7 days at 25° C. As for the experimental part:
The chemical stability is expressed as “% remaining peptide”.
as §2

In series [6] the test system is non-fasted female diabetic dbdb-mice. Briefly: Glucose lowering in non-fasted female diabetic dbdb-mice. The class given is in vivo. The conditions noted are these: 3 μg/kg s.c., at 240 min, kept to 480 min, baseline 20-22 mmol/l. From the text:
Female diabetic dbdb-mice of mean non-fasted glucose value of 20-22 mmol/l and a body weight of 42 g+/−0.6 g (SEM) were used. Mice were individually marked and were adapted to housing conditions for at least one week.
3-5 days prior to study start mice were assigned to groups and cages (4 mice per cage, 8 per group, control group 16) according to their non-fasted glucose values to ensure even distribution of lower and higher values between groups (stratification). On the study day, mice were weighed and dosed (t=0). Immediately prior to compound administration feed was removed while water remained available, and a first blood sample at a tail incision was drawn (baseline). Further blood samples were drawn at the tail incision at 30, 60, 90, 120, 240, 360, and 480 min.
Statistical analyses are performed with Everstat Version 6.0 based on SAS by 2-way-ANOVA on repeated measures, followed by Dunnett's post-hoc test against vehicle-control. Differences are considered statistically significant at the p<0.05 level.

The nature of series [7]: Pharmacokinetic testing in mice, s.c., LC/MS of plasma. The class given is in vivo. The conditions noted are these: mouse, sc, 1 mg/kg s.c. The procedure:
Mice were dosed 1 mg/kg subcutaneously (s.c.).
Pharmacokinetic profiles were determined as described in Methods.

Setting [8] is: pH 4.5, read-out: Solubility (pH 4.5).
Setting [9] is: pH 7.4, read-out: Solubility (pH 7.4).

T1 sequence (P43220 24-463): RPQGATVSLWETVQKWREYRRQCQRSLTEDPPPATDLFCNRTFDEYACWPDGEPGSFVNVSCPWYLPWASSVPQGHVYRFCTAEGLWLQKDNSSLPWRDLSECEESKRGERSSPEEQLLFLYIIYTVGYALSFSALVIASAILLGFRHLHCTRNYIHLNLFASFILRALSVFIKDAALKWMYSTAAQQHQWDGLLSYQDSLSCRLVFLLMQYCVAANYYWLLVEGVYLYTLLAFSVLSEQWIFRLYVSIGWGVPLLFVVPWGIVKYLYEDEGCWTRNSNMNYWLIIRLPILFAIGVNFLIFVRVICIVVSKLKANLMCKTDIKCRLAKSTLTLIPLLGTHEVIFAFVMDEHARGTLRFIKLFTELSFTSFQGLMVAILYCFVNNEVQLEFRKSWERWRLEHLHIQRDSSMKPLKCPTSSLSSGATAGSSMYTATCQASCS
T3 sequence (P47871 26-477): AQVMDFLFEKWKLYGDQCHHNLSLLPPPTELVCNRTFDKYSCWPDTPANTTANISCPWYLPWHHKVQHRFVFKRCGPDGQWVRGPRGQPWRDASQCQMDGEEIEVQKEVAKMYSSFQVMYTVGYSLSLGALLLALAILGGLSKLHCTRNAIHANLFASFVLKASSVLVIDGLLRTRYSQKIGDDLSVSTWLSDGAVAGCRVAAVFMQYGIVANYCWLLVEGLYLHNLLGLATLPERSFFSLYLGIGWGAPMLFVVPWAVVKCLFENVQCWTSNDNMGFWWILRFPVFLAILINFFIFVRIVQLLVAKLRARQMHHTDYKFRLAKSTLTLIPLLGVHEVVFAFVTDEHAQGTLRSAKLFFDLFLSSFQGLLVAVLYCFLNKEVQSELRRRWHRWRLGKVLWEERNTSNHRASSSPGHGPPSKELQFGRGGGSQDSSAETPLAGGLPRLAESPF

As usually defined, the EC50 is the concentration giving half of the maximal effect. A low value points to an effect from little substance. Consider `CCCCCCCCCCCCCCCC(=O)N[C@@H](CCC(=O)NCCCC[C@H](NC(=O)[C@H](CCC(N)=O)NC(=O)[C@@H](NC(=O)[C@H](CO)NC(=O)[C@H](CC(C)C)NC(=O)[C@H](CC(=O)O)NC(=O)[C@H](CO)NC(=O)[C@@H](NC(=O)[C@H](Cc1ccccc1)NC(=O)[C@@H](NC(=O)CNC(=O)[C@H](CCC(=O)O)NC(=O)C(C)(C)NC(=O)[C@@H](N)Cc1ccc(O)cc1)[C@@H](C)O)[C@@H](C)O)[C@@H](C)CC)C(=O)N[C@@H](CCC(=O)O)C(=O)N[C@@H](CCC(=O)O)C(=O)N[C@@H](CCCNC(=N)N)C(=O)N[C@@H](C)C(=O)N[C@@H](C)C(=O)N[C@](C)(CCCCN)C(=O)N[C@@H](CCC(=O)O)C(=O)N[C@@H](Cc1ccccc1)C(=O)N[C@H](C(=O)N[C@@H](CCC(=O)O)C(=O)N[C@@H](Cc1c[nH]c2ccccc12)C(=O)N[C@@H](CC(C)C)C(=O)N[C@@H](CCCCN)C(=O)N[C@@H](CC(N)=O)C(=O)N[C@H](C(=O)NCC(=O)N1CCC[C@H]1C(=O)N[C@@H](CO)C(=O)N[C@@H](CO)C(=O)NCC(=O)N[C@@H](C)C(=O)N1CCC[C@H]1C(=O)N1CCC[C@H]1C(=O)N1CCC[C@H]1C(=O)N[C@@H](CO)C(N)=O)[C@@H](C)O)[C@@H](C)CC)C(=O)O` [SEQ ID NO: 9, Y-Aib-E-G-T-F-T-S-D-L-S-I-Q-K(γE-x53)-E-E-R-A-A-(R)MeLys-E-F-I-E-W-L-K-N-T-G-P-S-S-G-A-P-P-P-S-NH2] (H-Y[Aib]EGTFTSDLSIQK([γGlu-Palmitoyl])EERAA[d(αMeK)]EFIEWLKNTGPSSGAPPPS-NH2), for which the results for the concentration for a half-maximal effect (EC50) in series [1], in series [2] and in series [3] were 0.0135 nM, 0.0932 nM and more than 1000 nM, respectively.

In general, solubility refers to how much of the substance goes into solution per volume. `CCCCCCCCCCCCCCCCCC(=O)N[C@@H](CCC(=O)NCCCC[C@H](NC(=O)[C@H](CCC(N)=O)NC(=O)[C@H](CCCCN)NC(=O)[C@H](CO)NC(=O)[C@H](CC(C)C)NC(=O)[C@H](CC(=O)O)NC(=O)[C@H](CO)NC(=O)[C@@H](NC(=O)[C@H](Cc1ccccc1)NC(=O)[C@@H](NC(=O)CNC(=O)[C@H](CCC(N)=O)NC(=O)C(C)(C)NC(=O)[C@@H](N)Cc1ccc(O)cc1)[C@@H](C)O)[C@@H](C)O)C(=O)N[C@@H](CC(=O)O)C(=O)N[C@@H](CCC(=O)O)C(=O)N[C@@H](CCC(N)=O)C(=O)N[C@@H](CCCNC(=N)N)C(=O)N[C@@H](C)C(=O)N[C@@](C)(CCCCN)C(=O)N[C@@H](CCC(=O)O)C(=O)N[C@@H](Cc1ccccc1)C(=O)N[C@H](C(=O)N[C@@H](CCC(=O)O)C(=O)N[C@@H](Cc1c[nH]c2ccccc12)C(=O)N[C@@H](CC(C)C)C(=O)N[C@@H](CCCCN)C(=O)N[C@@H](CO)C(=O)NCC(=O)NCC(=O)N1CCC[C@H]1C(=O)N[C@@H](CO)C(=O)N[C@@H](CO)C(=O)NCC(=O)N[C@@H](C)C(=O)N1CCC[C@H]1C(=O)N1CCC[C@H]1C(=O)N1CCC[C@H]1C(=O)N[C@@H](CO)C(N)=O)[C@@H](C)CC)C(=O)O` [SEQ ID NO: 12, Y-Aib-Q-G-T-F-T-S-D-L-S-K-Q-K(γE-x70)-D-E-Q-R-A-(S)MeLys-E-F-I-E-W-L-K-S-G-G-P-S-S-G-A-P-P-P-S-NH2]: the solubility at 2 h in series [4] (setting [8]) was more than 1000 µg/mL. Besides, the solubility at 2 h in series [4] (setting [9]) is 983 µg/mL (≈ 211 µM). In series [5], the “Stability (pH 4.5)” value turned out to be 98.0% and the “Stability (pH 7.4)” value worked out at 91.0%. Moreover, the “maximal effect, glucose reduction” value in series [6] was approximately 11 mmol/L.

As a reminder, the Cmax is the peak of the concentration-time curve. In general, half-life refers to the time in which the quantity being followed falls by half. Higher therefore signals slow decline. For the compound `CCCCCCCCCCCCCCCCCC(=O)N[C@@H](CCC(=O)NCCCC[C@H](NC(=O)[C@H](CCC(N)=O)NC(=O)[C@@H](NC(=O)[C@H](CO)NC(=O)[C@H](CC(C)C)NC(=O)[C@H](CC(=O)O)NC(=O)[C@H](CO)NC(=O)[C@@H](NC(=O)[C@H](Cc1ccccc1)NC(=O)[C@@H](NC(=O)CNC(=O)[C@H](CCC(N)=O)NC(=O)C(C)(C)NC(=O)[C@@H](N)Cc1ccc(O)cc1)[C@@H](C)O)[C@@H](C)O)[C@@H](C)CC)C(=O)N[C@@H](CC(=O)O)C(=O)N[C@@H](CCC(=O)O)C(=O)N[C@@H](CCC(N)=O)C(=O)N[C@@H](CCCNC(=N)N)C(=O)N[C@@H](C)C(=O)N[C@@](C)(CCCN)C(=O)N[C@@H](CCC(=O)O)C(=O)N[C@@H](Cc1ccccc1)C(=O)N[C@H](C(=O)N[C@@H](CCC(=O)O)C(=O)N[C@@H](Cc1c[nH]c2ccccc12)C(=O)N[C@@H](CC(C)C)C(=O)N[C@@H](CCCCN)C(=O)N[C@@H](C)C(=O)NCC(=O)NCC(=O)N1CCC[C@H]1C(=O)N[C@@H](CO)C(=O)N[C@@H](CO)C(=O)NCC(=O)N[C@@H](C)C(=O)N1CCC[C@H]1C(=O)N1CCC[C@H]1C(=O)N1CCC[C@H]1C(=O)N[C@@H](CO)C(N)=O)[C@@H](C)CC)C(=O)O` [SEQ ID NO: 15, Y-Aib-Q-G-T-F-T-S-D-L-S-I-Q-K(γE-x70)-D-E-Q-R-A-(S)MeOrn-E-F-I-E-W-L-K-A-G-G-P-S-S-G-A-P-P-P-S-NH2] (H-Y[Aib]QGTFTSDLSIQK([γGlu-Stearoyl])DEQRA[αMeOrn]EFIEWLKAGGPSSGAPPPS-NH2), the EC50 in series [1] was 0.0161 nM. Further, in series [2], the EC50 was determined as 0.0089 nM. The solubility at 2 h in series [4] (setting [8]) was more than 1000 µg/mL. Further, in series [4] (setting [9]), the solubility at 2 h was more than 1000 µg/mL. Besides, in series [5], the “Stability (pH 4.5)” value was determined as 98.0% and the “Stability (pH 7.4)” value stood at 98.0%. In addition, in series [7], the peak concentration (Cmax) stood at 3740 ng/mL and the half-life is 2.9 h. In addition, in series [6], the “maximal effect, glucose reduction” value is approximately 12 mmol/L.
